Data: US8106004B2, “Methods of inhibiting tumor cell aggressiveness using the microenvironment of human embryonic stem cells” (Children's Memorial Hospital, priority 2006, dated 2012)

Tested on: C8161 human cutaneous melanoma cells
Experiment: In vivo tumor formation, orthotopic mouse model, C8161 melanoma cells
Conditions: for tumorigenicity / tumor formation: 250,000 C8161 cells treated with Morpholino before subcutaneous injection, n=5, p<0.05
Procedure: A microenvironment of human embryonic stem cells (H9 CMTX) was prepared as described above. C8161 human cutaneous melanoma cells were exposed to the H9 CMTX or Matrigel for 3 to 4 days prior to transplantation in a mouse model. Nude immunocompromised mice received an injection of the C8161 cells subcutaneously into the midscapular region (to mimic spontaneous metastatic dissemination found in human cancers). The animals were injected using a 25 or 27-gauge needle with 2.5×10^5 tumor cells/mouse in 0.05 ml RPMI media.
As a corollary to these findings, an orthotopic mouse model was used to examine the effect of Nodal inhibition on melanoma tumor formation. For the experimental tumourigenesis model, 5 week old nude mice (Harlan, Madison, Wis.) were injected subcutaneously with 250,000 C8161 cells, treated with control or anti-Nodal Morpholinos, in 50 μL of complete RPMI. Tumor measurements were taken on days 3, 7, 14 and 17 post-injection, and mice were sacrificed on day 17. For the orthotopic mouse tumor formation studies, statistical significance was determined using the Kruskal-Wallis One Way Analysis of Variance on Ranks, followed by Dunn's method.
The derivation and phenotypic characteristics of the human melanoma cell lines have been previously described. Seftor, et. al., 2002, Clin. Experim. Metastas. 19:233-246; Seftor, et. al., 2005 Cancer Res. 65:10164-10169. The melanoma cell lines are maintained in RPMI 1640 medium (Invitrogen) supplemented with 10% fetal bovine serum (FBS, Gemini Bioproducts) and 0.1% gentamycin sulfate with the exception of C81-61 cells which are maintained in Ham's FIO medium supplemented with 15% FBS, 1X Mito+ (BD Bioscience) and gentamycin sulfate. Normal human melanocytes are purchased (Cascade Biologics) or isolated from neonatal foreskins. Seftor, et. al., 2005. A single cell suspension is prepared, added to plastic flasks for the adherence of melanocytes and the cells propagated in Medium 254 with Human Melanocyte Growth Supplement (Cascade Biologics) including, 100 units/ml penicillin, 100 μg/ml streptomycin, and 250 ng/mL amphotericin B. The human embryonic stem cell lines are cultured as previously described. Thomson, et. al., 1998, Science 282:1145-1147. Briefly, cells are grown in 6-well plates precoated with 0.1% porcine gelatin and containing 1.9×10^5 irradiated mouse embryonic fibroblasts (strain CF-1; ATCC) per well. The cells are maintained in medium containing DMEM/F12 (1:1), 20% knock-out serum replacement, non-essential minimal amino acids, L-glutamine (Invitrogen), […], and 4 ng/ml FGF-2 (R&D Systems), and are split with collagenase (1 mg/ml) before the colonies begin to overlap. The cultures are determined to be free of mycoplasma contamination using a PCR-based assay (Roche). […]

[1] = 250,000 C8161 cells treated with anti-Nodal Morpholino before injection

With “MO^Nodal: FITC-conjugated anti-sense Morpholino to Nodal, 5′-AAGCAGCACCTCCAGCCCTTATATC-3′ [SEQ ID NO: 20] (all phosphorodiamidate morpholino (PMO); FITC conjugated, position not given here)” the “tumorigenicity / tumor formation” value (listed as MO Nodal) was “reduction in tumor formation”, the “tumorigenicity / tumor formation” value (listed as MONodal) was “significant reduction” and the “diminution of tumor incidence” value [1] was 30%. The tumor growth [1] was “decrease”.
